Reference: patent US20250360235A1, “RADI[…] AND METHOD FOR RADIOLABELLING” (Telix Innovations SA, priority 2024, published 2025)

Assay: Radiochemical purity by iTLC over time after radiolabelling
Assay type: physicochemical
Description: Table 1 to Table 5 show the results of various radiolabelling experiments on radiochemical purity and the chelation yield. The radiolabelling experiments in the tables are carried out as described in: • Example 1 for when the gallium-68 source is GE Liquid target generator and EZAG GalliaPharm generator; • Example 2 for when the gallium-68 source is IRE Galli Eo generator; • Example 3 for when the gallium-68 source is GE solid target generator;
However, the experiments were carried out with the amount of ascorbic acid as indicated in the Tables 1 to 5, and the activity as indicated in the Tables 1 to 5. Radiochemical purities were measured at various times (T0, T1, T4, T6) after the radiolabelled experiments have been conducted.
The kits of Example 1, Example 2 or Example 3, with amounts of ascorbic acid as set out in Table 7 were used in the experiments for the ascorbic acid bracketing matrix. Three strengths of [^68Ga]Ga-PSMA-11 will be tested, i.e. 50 mCi/ml, 7 mCi/ml and 1 mCi/ml. Radiochemical purity was determined at different time points (TO, T1, T4 or T6), as set out in Table 7.

[1] = 25 mg ascorbic acid, 46.0-46.1 mCi, 4.38-4.39 mCi/mL, EZAG GalliaPharm, average of 2, T4 (4 h)
[2] = 25 mg ascorbic acid, 46.0-46.1 mCi, 4.38-4.39 mCi/mL, EZAG GalliaPharm, n=2, T0
[3] = 25 mg ascorbic acid, 46.0-46.1 mCi, 4.38-4.39 mCi/mL, EZAG GalliaPharm, n=2, T4 (4 h)
[4] = bracketing ~1 mCi/mL, 18.75 mg ascorbic acid, 8.9-11.5 mCi, 0.85-1.09 mCi/mL, IRE Galli Eo, average of 2, T0
[5] = bracketing ~1 mCi/mL, 18.75 mg ascorbic acid, 8.9-11.5 mCi, 0.85-1.09 mCi/mL, IRE Galli Eo, average of 2, T1 (1 h)
[6] = bracketing ~1 mCi/mL, 25 mg ascorbic acid, 8.8-12.7 mCi, 0.84-1.21 mCi/mL, 2 × IRE Galli Eo, average of 2, T0
[7] = bracketing ~1 mCi/mL, 25 mg ascorbic acid, 8.8-12.7 mCi, 0.84-1.21 mCi/mL, 2 × IRE Galli Eo, average of 2, T1 (1 h)
[8] = bracketing ~1 mCi/mL, 31.25 mg ascorbic acid, 15.2-26.9 mCi, 1.44-2.54 mCi/mL, EZAG GalliaPharm, average of 2, T0
[9] = bracketing ~1 mCi/mL, 31.25 mg ascorbic acid, 15.2-26.9 mCi, 1.44-2.54 mCi/mL, EZAG GalliaPharm, average of 2, T1 (1 h)
[10] = bracketing ~7 mCi/mL, 18.75 mg ascorbic acid, 51.0-58.0 mCi, 5.55-6.5 mCi/mL, IRE Galli Eo, average of 2, T0
[11] = bracketing ~7 mCi/mL, 18.75 mg ascorbic acid, 51.0-58.0 mCi, 5.55-6.5 mCi/mL, IRE Galli Eo, average of 2, T4 (4 h)
[12] = bracketing ~7 mCi/mL, 25 mg ascorbic acid, 51.6-74.4 mCi, 4.56-6.92 mCi/mL, 3 × GE Liquid Target, 3 × IRE Galli Eo, 3 × EZAG GalliaPharm, average of 9, T0
[13] = bracketing ~7 mCi/mL, 25 mg ascorbic acid, 51.6-74.4 mCi, 4.56-6.92 mCi/mL, 3 × GE Liquid Target, 3 × IRE Galli Eo, 3 × EZAG GalliaPharm, average of 9, T4 (4 h)
[14] = bracketing ~7 mCi/mL, 31.25 mg ascorbic acid, 61.5-62.0 mCi, 5.85-5.88 mCi/mL, EZAG GalliaPharm, average of 2, T0
[15] = bracketing ~7 mCi/mL, 31.25 mg ascorbic acid, 61.5-62.0 mCi, 5.85-5.88 mCi/mL, EZAG GalliaPharm, average of 2, T4 (4 h)
[16] = bracketing ~50 mCi/mL, 20 mg ascorbic acid, 514-544 mCi, 48.3-51.9 mCi/mL, GE Solid Target, average of 2, T0
[17] = bracketing ~50 mCi/mL, 20 mg ascorbic acid, 514-544 mCi, 48.3-51.9 mCi/mL, GE Solid Target, average of 2, T6 (6 h)
[18] = bracketing ~50 mCi/mL, 25 mg ascorbic acid, 537-551 mCi, 50.2-51.6 mCi/mL, GE Solid Target, average of 3, T0
[19] = bracketing ~50 mCi/mL, 25 mg ascorbic acid, 537-551 mCi, 50.2-51.6 mCi/mL, GE Solid Target, average of 3, T6 (6 h)
[20] = bracketing ~50 mCi/mL, 31.25 mg ascorbic acid, 500-544 mCi, 48.1-51.7 mCi/mL, GE Solid Target, average of 2, T0

For `O=C([O-])CN(CCN(CC(=O)[O-])Cc1cc(CCC(=O)NCCCCCC(=O)NCCCC[C@H](NC(=O)N[C@@H](CCC(=O)O)C(=O)O)C(=O)O)ccc1[O-])Cc1cc(CCC(=O)O)ccc1[O-].[68Ga+3].[OH3+]` [[^68Ga]PSMA-11, gallium-68 radiolabelled Glu-urea-Lys-HBED-CC (gozetotide or PSMA-11)], the “Radiochemical Purity (iTLC) Free and Colloidal Ga-68 (%)” value [1] was 0%, the “Radiochemical Purity (iTLC) Ga-68 PSMA-11 (%)” value [1] was 100% and the “Radiochemical Purity (iTLC) Free and Colloidal Ga-68 (%)” value [2] was “C (C = all results conform to specifications)”. The “Radiochemical Purity (iTLC) Ga-68 PSMA-11 (%)” value [2] was “C (C = all results conform to specifications)”, the “Radiochemical Purity (iTLC) Free and Colloidal Ga-68 (%)” value [3] was “C (C = all results conform to specifications)” and the “Radiochemical Purity (iTLC) Ga-68 PSMA-11 (%)” value [3] was “C (C = all results conform to specifications)”. The “Radiochemical Purity (iTLC) Free and Colloidal Ga-68 (%)” value [4] was 0%, the “Radiochemical Purity (iTLC) Ga-68 PSMA-11 (%)” value [4] was 100% and the “Radiochemical Purity (iTLC) Free and Colloidal Ga-68 (%)” value [5] was 0%. For the same compound, the “Radiochemical Purity (iTLC) Ga-68 PSMA-11 (%)” value [5] was 100%, the “Radiochemical Purity (iTLC) Free and Colloidal Ga-68 (%)” value [6] was 0% and the “Radiochemical Purity (iTLC) Ga-68 PSMA-11 (%)” value [6] was 100%. For the same compound, the “Radiochemical Purity (iTLC) Free and Colloidal Ga-68 (%)” value [7] was 0%, the “Radiochemical Purity (iTLC) Ga-68 PSMA-11 (%)” value [7] was 100% and the “Radiochemical Purity (iTLC) Free and Colloidal Ga-68 (%)” value [8] was 0%. The “Radiochemical Purity (iTLC) Ga-68 PSMA-11 (%)” value [8] was 100%, the “Radiochemical Purity (iTLC) Free and Colloidal Ga-68 (%)” value [9] was 0% and the “Radiochemical Purity (iTLC) Ga-68 PSMA-11 (%)” value [9] was 100%. For the same compound, the “Radiochemical Purity (iTLC) Free and Colloidal Ga-68 (%)” value [10] was 0%, the “Radiochemical Purity (iTLC) Ga-68 PSMA-11 (%)” value [10] was 100% and the “Radiochemical Purity (iTLC) Free and Colloidal Ga-68 (%)” value [11] was 0%. For the same compound, the “Radiochemical Purity (iTLC) Ga-68 PSMA-11 (%)” value [11] was 100%, the “Radiochemical Purity (iTLC) Free and Colloidal Ga-68 (%)” value [12] was 0% and the “Radiochemical Purity (iTLC) Ga-68 PSMA-11 (%)” value [12] was 100%. The “Radiochemical Purity (iTLC) Free and Colloidal Ga-68 (%)” value [13] was 1%, the “Radiochemical Purity (iTLC) Ga-68 PSMA-11 (%)” value [13] was 99% and the “Radiochemical Purity (iTLC) Free and Colloidal Ga-68 (%)” value [14] was 0%. The “Radiochemical Purity (iTLC) Ga-68 PSMA-11 (%)” value [14] was 100%, the “Radiochemical Purity (iTLC) Free and Colloidal Ga-68 (%)” value [15] was 0% and the “Radiochemical Purity (iTLC) Ga-68 PSMA-11 (%)” value [15] was 100%. For the same compound, the “Radiochemical Purity (iTLC) Free and Colloidal Ga-68 (%)” value [16] was 3%, the “Radiochemical Purity (iTLC) Ga-68 PSMA-11 (%)” value [16] was 97% and the “Radiochemical Purity (iTLC) Free and Colloidal Ga-68 (%)” value [17] was 2%. For the same compound, the “Radiochemical Purity (iTLC) Ga-68 PSMA-11 (%)” value [17] was 98%, the “Radiochemical Purity (iTLC) Free and Colloidal Ga-68 (%)” value [18] was 0% and the “Radiochemical Purity (iTLC) Ga-68 PSMA-11 (%)” value [18] was 100%. The “Radiochemical Purity (iTLC) Free and Colloidal Ga-68 (%)” value [19] was 1%, the “Radiochemical Purity (iTLC) Ga-68 PSMA-11 (%)” value [19] was 99% and the “Radiochemical Purity (iTLC) Free and Colloidal Ga-68 (%)” value [20] was 1%. For the same compound, the “Radiochemical Purity (iTLC) Ga-68 PSMA-11 (%)” value [20] was 99% and the “Radiochemical Purity (iTLC) Free and Colloidal Ga-68 (%)” value (bracketing ~50 mCi/mL, 31.25 mg ascorbic acid, 500-544 mCi, 48.1-51.7 mCi/mL, GE Solid Target, average of 2, T6 (6 h)) was 1%.
